Test results taken from publication PMC11459959, “Discovery of new acetamide derivatives of 5-indole-1,3,4-oxadiazol-2-thiol as inhibitors of HIV-1 Tat-mediated viral transcription” (Antimicrobial Agents and Chemotherapy, 2024).

Columns and labels:
Assay type in all cases: cell-based
HIV-1 transcripts = assay: RNA-seq of HIV-1 transcripts in infected TZM-bl cells; conditions: HIV-1NL4-3 MOI 1, 1.5 µM, 2 days
Method: At 48 h after infection, the total RNA was extracted using the Maxwell RSC simplyRNA Cells Kit (Promega) according to the manufacturer’s instructions. RNA integrity was evaluated as RNA integrity number >6 using the Agilent 2100 Bio-analyzer (Agilent Technologies, Santa Clara, CA, USA). The cDNA libraries were constructed using TruSeq Stranded mRNA Sample Preparation Kit (Illumina, San Diego, CA, USA) according to the manufacturer’s instructions. Subsequently, these cDNA libraries were sequenced on the Illumina sequencing platform (NovaSeq6000; Illumina) and 150 bp paired-end reads were generated. Trimmomatic (v.0.32) was used to eliminate low-quality reads and adapter sequences from the sequencing data ([64]). Subsequently, the filtered reads were aligned to the HIV-1 genome (accession: AF324493.2) using STAR (v.2.3.0) ([65]). RT-qPCR analyses were performed as previously described ([66]) with some minor modifications. […] After infection, the infected cells were treated with 1.5 µM of the compounds. Forty-eight hours after treatment, the viral mRNA was isolated, converted to cDNA, and quantified through RT-qPCR on a 7500 Real-Time PCR System (Applied Biosystems) using the Power SYBR Green PCR Master Mix (Applied Biosystems). The comparative cycle threshold (Ct) method was used to analyze relative changes (Δ) in gene expression. The ΔCt values were determined using a 7500 Real-Time PCR System Software (Applied Biosystems) normalizing with gapdh, and the gene expression was calculated using the ΔΔCt-method. The primers used in this assay are the following: gag forward, 5′-[…]-3′, gag reverse, 5′-[…]-3′; gapdh forward, 5′-[…]-3′, gapdh reverse, 5′-[…]-3′.

[1] = tested on: HIV-1NL4-3 IRES-eGFP-nef+; assay: eGFP-encoding HIV-1 infection of TZM-bl cells; conditions: 9, 10, 13 1.5 μM, 20, 21, 22 4 μM, seliciclib 10 µM, triptolide 5 nM, DTG 2 nM, EFV 2 nM, 2 days
Method: Fig 4 (A) Comparison of the chemical structures between prominent derivatives (9, 10, and 13) and non-functional derivatives (20, 21 and 22). (B) bl-DTR cells were treated with serial dilutions of each compound upon Dox for 24 h. The activities of F-Luc and R-Luc were determined using the Dual-Glo -Luciferase assay system. (C) TZM-bl cells were infected with the HIV-1NL4-3 strain at an MOI of 1 upon treatment of compounds. At 48 h after infection, the viral infectivity and cell viability were determined as described above (Fig. 1). (D) TZM-bl cells were infected with HIV-1NL4-3 IRES-eGFP virus along with the compound treatment. Two days later, GFP-expressing cells were observed by fluorescence microscopy (100× magnification). […] At 48 h after infection, the β-gal activity indicating viral infectivity was determined using the β-gal Enzyme Assay kit. F-Luc activity and cell viability were determined as described above (Fig. 4C). (C and E) The dose-response curves show the relative activity compared with that of the DMSO vehicle (mean ± SD; n = 3).

HIV-1NL4-3 [2] = assay: HIV-1 replication in A3.01 cells (p24 […]); conditions: fivefold serial dilutions, 3 days
Method: (§1) The p24 level from the cell supernatant was subsequently determined using a p24 […] kit (PerkinElmer). In parallel, the cell viability was determined without viral infection because of the viral cytopathic effect. […] In parallel, cell viability was determined. The data (A and B) are presented as the mean ± SD (n = 3). (C) PBMCs (4 × 10^5) infected with HIV-AD8 at an MOI of 0.1 were treated with 1.5 µM of the compounds or ARVs for 3 days. The levels of p24 and cell viability were subsequently determined. (D) J1.1 cells were cultured with the compounds ([…]) under 50 ng/mL phorbol myristate acetate (PMA) treatment for 2 days. The level of p24 was subsequently determined. (E) J-Lat 6.3 cells were treated with the compounds (1.5 µM) under 1 µg/mL of PMA for 2 days. The GFP-positive cell population was analyzed using flow cytometry. The data are represented as a value relative to the DMSO-treated vehicle (D) and a percent of the GFP^+ cell population (E) as mean ± SD (n = 3).
(§2) The inhibitory effects of the compounds on viral replication were determined with some minor modifications, as previously described ([12], [62]). […] PBMCs (4 × 10^5) pre-activated with PHA-M for 3 days were washed with fresh media to remove excess PHA-M and subsequently infected with HIV-1NL4-3 or HIV-1AD8 or PIs-resistant HIV-1 strains as A3.01 infection. After infection, the infectious media were replaced with fresh media supplemented with international 10 units (IU)/mL of IL-2 and the indicated compounds. At 72 h after infection, the inhibitory effect of the compounds on viral replication was determined by measuring the p24 amount, an HIV capsid protein, using an HIV-1 p24 […] kit (PerkinElmer, Waltham, MA, USA). Cell viability was determined as described above. The inhibitory effects on provirus reversing in J1.1 and J-Lat 6.3 cells were determined as previously described ([12], [41], [63]) with some minor modifications. Briefly, 5 × 10^4 persistently HIV-1-infected J1.1 or J-Lat 6.3 cells were cultured in either the presence or absence of the compounds at a final concentration of 1.5 µM and treated with PMA (50 ng/mL for J1.1 cells, 1 µg/mL for J-Lat 6.3 cells). Two days after treatment, the levels of viral production were determined using p24 […] for J1.1 cells and flow cytometry analysis for GFP-expressing J-Lat 6.3 cells.

[3] = tested on: PI-resistant HIV-1 strain 11803; assay: microbe, parasite or virus in culture; conditions: PI-resistant 11803, PBMCs, 10-fold serial dilution; read-out: EC50
From the text: (§3) The Tzm-bl-derived dual Tat reporter; TZM-bl/Tat/Rluc (bl-DTR) cells were established from TZM-bl cells using two Dox-inducible lentiviral expression cassettes cloned with Flag-tagged Tat86 and the R-Luc gene, as described in our previous study ([11]). TZM-bl, A3.01, J1.1, and J-Lat 6.3 cells as well as the HIV-1 molecular clone pNL4-3, pNL(AD8), ARV-resistant HIV-1 strains, and HIV-1NL43-IRES-eGFP (pBR43IeG-nef^+, gifted by Dr. Frank Kirchhoff) ([52]) were provided by the National Institute of Health HIV Reagent Program (NIH, Bethesda, MD, USA). HeLa (CCL-2) and 293T (CRL-3216) cell lines were purchased from the American Type Culture Collection (ATCC, Manassas, VA, USA). The bl-DTR, TZM-bl, HeLa, and 293T cells were cultured in Dulbecco’s modified Eagle’s medium supplemented with 1% penicillin–streptomycin and 10% (vol/vol) heat-inactivated fetal bovine serum (all from Gibco-BRL, Gaithersburg, MD, USA), and 1 µg/mL of puromycin and 200 µg/mL of zeocin were additionally supplemented for the bl-DTR cells. PBMCs were purchased from AllCells (Alameda, CA, USA) and cultured as previously described ([12]). The information on ARV-resistant HIV-1 strains was described in previous reports as follows: NNRTI-resistant 12241 and 12243 ([53]); NRTI-resistant 7396, 7406, and 7407 ([54]); INSTI-resistant 11847 and 11849 ([55], [56]); and PI-resistant 11800 and 11803 ([57]). Each molecular HIV-1 clone was transfected to 293T cells, as previously described ([58]), to obtain infectious HIV-1 particles. Virus-containing cell culture supernatants were collected 3 days after transfection, and filtered through a 0.45-µm membrane filter (Millipore Sigma, Burlington, MA, USA) to remove cell debris. The viral titration was performed as described previously ([59]) with some minor modifications. In brief, 1 × 10^4 TZM-bl cells seeded in 96-well plates were infected with 200 µL of virus-containing medium diluted serially twofold. The incubation was for 2 days and the experiment was performed in triplicate; the infection time minimized the virus spread ([59]). The titration of the infectious viral particles was performed with a ß-Gal staining assay using the ßeta-Galactosidase Staining Kit (Mirus Bio, Madison, WI, USA) following the manufacturer’s protocols. In brief, the infected cells were washed with phosphate-buffered saline (PBS) and fixed using a Cell Fixative Working solution. The cells were washed with PBS and stained using the Cell Staining Working Solution containing X-gal. The infected blue-colored cells were counted under a microscope (100× magnification). The infectious virus titer was determined as a mean value of blue-colored cells count × dilution factor and used for determining the multiplicity of infection (MOI) in each infection experiment.
(§4) The inhibitory effects of the compounds on viral replication were determined with some minor modifications, as previously described ([12], [62]). […] PBMCs (4 × 10^5) pre-activated with PHA-M for 3 days were washed with fresh media to remove excess PHA-M and subsequently infected with HIV-1NL4-3 or HIV-1AD8 or PIs-resistant HIV-1 strains as A3.01 infection. After infection, the infectious media were replaced with fresh media supplemented with international 10 units (IU)/mL of IL-2 and the indicated compounds. At 72 h after infection, the inhibitory effect of the compounds on viral replication was determined by measuring the p24 amount, an HIV capsid protein, using an HIV-1 p24 […] kit (PerkinElmer, Waltham, MA, USA). Cell viability was determined as described above. The inhibitory effects on provirus reversing in J1.1 and J-Lat 6.3 cells were determined as previously described ([12], [41], [63]) with some minor modifications.

[4] = tested on: PI-resistant HIV-1 strain 11800; assay: microbe, parasite or virus in culture; conditions: PI-resistant 11800, PBMCs, 10-fold serial dilution; read-out: EC50
From the text: as §3, §4

HIV-1NL4-3 [5] = assay: HIV-1 replication in PBMCs (p24 […]); conditions: Table S1, WT virus, 10-fold serial dilution, read-out: EC50
Method: as §1, §2

## Cc1[nH]c2ccc(-c3nnc(S(=O)(=O)C(C)C(=O)N4CCCCC4)o3)cc2c1C (stereo not drawn) [Compound 20, 2-((5-(2,3-Dimethyl-1H-indol-5-yl)-1,3,4-oxadiazol-2-yl)sulfonyl)-1-(piperidin-1-yl)propan-1-one]
HIV-1 transcripts
  read counts of transcripts mapped to the HIV-1 genome: not observed
[1]
  inhibition of viral-expressed eGFP signal: did not
HIV-1NL4-3 [2]
  inhibition of viral replication (in words): did not

## Cc1c(O)cccc1C(=O)N[C@@H](CSc1ccccc1)[C@H](O)CN1C[C@H]2CCCC[C@H]2C[C@H]1C(=O)NC(C)(C)C [NFV, nelfiravir]
[3]
  EC50: 1.64 ± 0.22 µM
[4]
  EC50: 0.42 ± 0.02 µM
HIV-1NL4-3 [5]
  EC50: < 0.001 µM

## CC(C)(C)NC(=O)[C@@H]1C[C@@H]2CCCC[C@@H]2CN1C[C@@H](O)[C@H](Cc1ccccc1)NC(=O)[C@H](CC(N)=O)NC(=O)c1ccc2ccccc2n1 [SQV, sequinavir]
[3]
  EC50: 1.24 ± 0.13 µM
[4]
  EC50: 0.01 µM
HIV-1NL4-3 [5]
  EC50: 0.00824 ± 0.00015 µM
